In PubChem BioAssay (NCI):
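Exposure lasted 48 hours, with cells grown in 96-well plates and compounds tested at five concentrations. GI50 is the concentration that inhibits growth by half. At the TGI there is no net growth.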

How the values were obtained:
Assay in all cases: DTP human tumour cell line panel, 48 h
NCI-H23 lung = system: NCI-H23 lung
K-562 leukemia = system: K-562 leukemia
786-0 renal = system: 786-0 renal
MALME-3M melanoma = system: MALME-3M melanoma
UO-31 renal = system: UO-31 renal
IGROV1 ovarian = system: IGROV1 ovarian
SF-539 CNS = system: SF-539 CNS
NCI-H522 lung = system: NCI-H522 lung
OVCAR-4 ovarian = system: OVCAR-4 ovarian
MCF7 breast = system: MCF7 breast
U251 CNS = system: U251 CNS
HCT-15 colon = system: HCT-15 colon
OVCAR-5 ovarian = system: OVCAR-5 ovarian
SK-MEL-5 melanoma = system: SK-MEL-5 melanoma
NCI-H226 lung = system: NCI-H226 lung
UACC-257 melanoma = system: UACC-257 melanoma
MDA-MB-435 = system: MDA-MB-435
SF-268 CNS = system: SF-268 CNS
M14 melanoma = system: M14 melanoma
RPMI-8226 leukemia = system: RPMI-8226 leukemia
COLO 205 colon = system: COLO 205 colon
T-47D breast = system: T-47D breast
HL-60(TB) leukemia = system: HL-60(TB) leukemia
OVCAR-3 ovarian = system: OVCAR-3 ovarian
SNB-19 CNS = system: SNB-19 CNS
HCC-2998 colon = system: HCC-2998 colon
EKVX NSCLC = system: EKVX NSCLC
UACC-62 melanoma = system: UACC-62 melanoma
MOLT-4 leukemia = system: MOLT-4 leukemia
SK-OV-3 ovarian = system: SK-OV-3 ovarian
MDA-MB-231 breast = system: MDA-MB-231 breast
SW-620 colon = system: SW-620 colon
SN12C renal = system: SN12C renal
KM12 colon = system: KM12 colon
SK-MEL-28 melanoma = system: SK-MEL-28 melanoma
HOP-92 NSCLC = system: HOP-92 NSCLC
PC-3 prostate = system: PC-3 prostate
A498 renal = system: A498 renal
TK-10 renal = system: TK-10 renal
SNB-75 CNS = system: SNB-75 CNS
OVCAR-8 ovarian = system: OVCAR-8 ovarian
CAKI-1 renal = system: CAKI-1 renal
CCRF-CEM leukemia = system: CCRF-CEM leukemia
NCI-H460 lung = system: NCI-H460 lung
HT29 colon = system: HT29 colon
SK-MEL-2 melanoma = system: SK-MEL-2 melanoma
ACHN renal = system: ACHN renal
SF-295 CNS = system: SF-295 CNS
BT-549 breast = system: BT-549 breast
DU-145 prostate = system: DU-145 prostate
HS 578T breast = system: HS 578T breast
HOP-62 NSCLC = system: HOP-62 NSCLC
A549 NSCLC = system: A549 NSCLC
RXF 393 renal = system: RXF 393 renal
LOX IMVI melanoma = system: LOX IMVI melanoma
NCI/ADR-RES ovarian = system: NCI/ADR-RES ovarian
HCT-116 colon = system: HCT-116 colon
SR leukemia = system: SR leukemia

COC1C(CO)OC(n2c3ccccc3c3c4c(c5c6ccccc6[nH]c5c32)C(=O)NC4=O)C(O)C1OC(=O)C(N)CCCCN (centres undefined)
GI50 (NCI-H23 lung): 2.79 µM
TGI (NCI-H23 lung): > 50 µM
GI50 (K-562 leukemia): 0.414 µM
TGI (K-562 leukemia): > 50 µM
GI50 (786-0 renal): 0.653 µM
TGI (786-0 renal): > 21.5 µM
GI50 (MALME-3M melanoma): 0.11 µM
TGI (MALME-3M melanoma): 0.946 µM
GI50 (UO-31 renal): 0.997 µM
TGI (UO-31 renal): 5.5 µM
GI50 (IGROV1 ovarian): 0.61 µM
TGI (IGROV1 ovarian): 4.42 µM
GI50 (SF-539 CNS): 0.165 µM
TGI (SF-539 CNS): 0.821 µM
GI50 (NCI-H522 lung): 0.168 µM
TGI (NCI-H522 lung): 3.55 µM
GI50 (OVCAR-4 ovarian): 3.83 µM
TGI (OVCAR-4 ovarian): > 50 µM
GI50 (MCF7 breast): 1.13 µM
TGI (MCF7 breast): > 50 µM
GI50 (U251 CNS): 0.282 µM
TGI (U251 CNS): > 11.5 µM
GI50 (HCT-15 colon): 8.98 µM
TGI (HCT-15 colon): > 39.5 µM
GI50 (OVCAR-5 ovarian): 3.12 µM
TGI (OVCAR-5 ovarian): > 50 µM
GI50 (SK-MEL-5 melanoma): 0.208 µM
TGI (SK-MEL-5 melanoma): 0.838 µM
GI50 (NCI-H226 lung): 0.777 µM
TGI (NCI-H226 lung): 9.59 µM
GI50 (UACC-257 melanoma): 0.648 µM
TGI (UACC-257 melanoma): > 10.2 µM
GI50 (MDA-MB-435): 1.07 µM
TGI (MDA-MB-435): 5.04 µM
GI50 (SF-268 CNS): 0.379 µM
TGI (SF-268 CNS): 14.5 µM
GI50 (M14 melanoma): 0.689 µM
TGI (M14 melanoma): > 11 µM
GI50 (RPMI-8226 leukemia): > 15.7 µM
TGI (RPMI-8226 leukemia): > 35.5 µM
GI50 (COLO 205 colon): 1.27 µM
TGI (COLO 205 colon): > 17.2 µM
TGI (T-47D breast): > 10.3 µM
GI50 (HL-60(TB) leukemia): 0.231 µM
TGI (HL-60(TB) leukemia): > 50 µM
GI50 (OVCAR-3 ovarian): 0.822 µM
TGI (OVCAR-3 ovarian): 5.1 µM
GI50 (SNB-19 CNS): 1.31 µM
TGI (SNB-19 CNS): > 50 µM
GI50 (HCC-2998 colon): 1.57 µM
TGI (HCC-2998 colon): 17.8 µM
GI50 (EKVX NSCLC): 1.69 µM
TGI (EKVX NSCLC): 8.86 µM
GI50 (UACC-62 melanoma): 0.283 µM
TGI (UACC-62 melanoma): 1.3 µM
GI50 (MOLT-4 leukemia): 0.178 µM
TGI (MOLT-4 leukemia): > 50 µM
GI50 (SK-OV-3 ovarian): 2.11 µM
TGI (SK-OV-3 ovarian): > 15.5 µM
GI50 (MDA-MB-231 breast): 0.985 µM
TGI (MDA-MB-231 breast): 8 µM
GI50 (SW-620 colon): 0.198 µM
TGI (SW-620 colon): > 16.9 µM
GI50 (SN12C renal): 0.405 µM
TGI (SN12C renal): 2.36 µM
GI50 (KM12 colon): 0.499 µM
TGI (KM12 colon): 4.13 µM
GI50 (SK-MEL-28 melanoma): 2.67 µM
TGI (SK-MEL-28 melanoma): > 18.2 µM
GI50 (HOP-92 NSCLC): 1.54 µM
TGI (HOP-92 NSCLC): 12.9 µM
GI50 (PC-3 prostate): 1.43 µM
TGI (PC-3 prostate): > 42.3 µM
GI50 (A498 renal): 0.917 µM
TGI (A498 renal): 3.11 µM
GI50 (TK-10 renal): 1.81 µM
TGI (TK-10 renal): 14.6 µM
GI50 (SNB-75 CNS): 3.62 µM
TGI (SNB-75 CNS): > 22.8 µM
GI50 (OVCAR-8 ovarian): 0.49 µM
TGI (OVCAR-8 ovarian): > 50 µM
GI50 (CAKI-1 renal): 1.21 µM
TGI (CAKI-1 renal): 11.7 µM
GI50 (CCRF-CEM leukemia): 0.23 µM
TGI (CCRF-CEM leukemia): > 50 µM
GI50 (NCI-H460 lung): 3.64 µM
TGI (NCI-H460 lung): 27.1 µM
GI50 (HT29 colon): 2.65 µM
TGI (HT29 colon): > 50 µM
GI50 (SK-MEL-2 melanoma): 1.93 µM
TGI (SK-MEL-2 melanoma): 9.91 µM
GI50 (ACHN renal): 0.713 µM
TGI (ACHN renal): 3.51 µM
GI50 (SF-295 CNS): 1.26 µM
TGI (SF-295 CNS): 7.43 µM
GI50 (BT-549 breast): 0.807 µM
TGI (BT-549 breast): 5.62 µM
GI50 (DU-145 prostate): 0.659 µM
TGI (DU-145 prostate): 4.05 µM
GI50 (HS 578T breast): 1.93 µM
TGI (HS 578T breast): 12.2 µM
GI50 (HOP-62 NSCLC): 1.09 µM
TGI (HOP-62 NSCLC): 17.4 µM
GI50 (A549 NSCLC): 3.27 µM
TGI (A549 NSCLC): > 50 µM
GI50 (RXF 393 renal): 2.44 µM
TGI (RXF 393 renal): 14.8 µM
GI50 (LOX IMVI melanoma): 0.261 µM
GI50 (NCI/ADR-RES ovarian): > 50 µM
TGI (NCI/ADR-RES ovarian): > 50 µM

COc1cc([C@@H]2c3cc4c(cc3[C@@H](Nc3ccc(Cl)cc3C(=O)c3ccccc3Cl)[C@H]3COC(=O)[C@H]23)OCO4)cc(OC)c1OC
TGI (NCI-H23 lung): > 53.8 µM
TGI (K-562 leukemia): > 100 µM
TGI (786-0 renal): > 100 µM
TGI (MALME-3M melanoma): > 100 µM
TGI (UO-31 renal): > 100 µM
TGI (SF-539 CNS): 0.198 µM
TGI (NCI-H522 lung): 0.237 µM
TGI (OVCAR-4 ovarian): > 100 µM
TGI (MCF7 breast): > 100 µM
TGI (U251 CNS): 0.364 µM
TGI (OVCAR-5 ovarian): > 100 µM
TGI (UACC-257 melanoma): > 100 µM
TGI (MDA-MB-435): 0.397 µM
TGI (SF-268 CNS): > 100 µM
TGI (M14 melanoma): > 100 µM
TGI (T-47D breast): > 100 µM
TGI (OVCAR-3 ovarian): 6.4 µM
TGI (SNB-19 CNS): 76.1 µM
TGI (HCC-2998 colon): > 100 µM
TGI (EKVX NSCLC): > 100 µM
TGI (UACC-62 melanoma): > 72.4 µM
TGI (MOLT-4 leukemia): > 100 µM
TGI (SK-OV-3 ovarian): > 100 µM
TGI (MDA-MB-231 breast): > 100 µM
TGI (SW-620 colon): > 46.1 µM
TGI (SN12C renal): > 100 µM
TGI (KM12 colon): 0.289 µM
TGI (SK-MEL-28 melanoma): 34 µM
TGI (TK-10 renal): > 100 µM
TGI (HCT-116 colon): > 100 µM
TGI (SNB-75 CNS): > 100 µM
TGI (OVCAR-8 ovarian): > 36.2 µM
TGI (CAKI-1 renal): > 43.3 µM
TGI (HT29 colon): > 100 µM
TGI (SK-MEL-2 melanoma): > 100 µM
TGI (SF-295 CNS): > 37.4 µM
TGI (SR leukemia): 0.425 µM
TGI (BT-549 breast): > 100 µM
TGI (DU-145 prostate): > 100 µM
TGI (HOP-62 NSCLC): 16.9 µM
TGI (A549 NSCLC): > 100 µM
TGI (RXF 393 renal): > 75.3 µM
TGI (LOX IMVI melanoma): > 100 µM
TGI (NCI/ADR-RES ovarian): > 37.7 µM
